Patent US20250171438A1 (Agios Pharmaceuticals, Inc., priority 2022, published 2025)

Target: T1, human PAH with the R408W mutation (Homo sapiens, UniProt P00439, R408W)
T1 construct: expressed in transfected cells
T1 sequence (P00439 1-452 R408W): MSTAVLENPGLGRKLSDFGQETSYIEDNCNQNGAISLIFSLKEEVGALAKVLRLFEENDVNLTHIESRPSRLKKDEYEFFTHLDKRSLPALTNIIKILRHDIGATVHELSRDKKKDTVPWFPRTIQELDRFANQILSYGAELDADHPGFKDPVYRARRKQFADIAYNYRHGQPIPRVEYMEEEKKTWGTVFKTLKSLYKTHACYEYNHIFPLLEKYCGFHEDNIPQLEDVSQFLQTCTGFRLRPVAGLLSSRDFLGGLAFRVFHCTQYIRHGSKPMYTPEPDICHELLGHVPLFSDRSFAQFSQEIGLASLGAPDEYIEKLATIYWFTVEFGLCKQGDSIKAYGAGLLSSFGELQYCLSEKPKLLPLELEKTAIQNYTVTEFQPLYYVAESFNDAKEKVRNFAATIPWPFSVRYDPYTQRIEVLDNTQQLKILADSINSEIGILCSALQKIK
Assay: Cell Based Phenylalanine Flux Assay
Settings: A375 cells expressing human R408W PAH; 24 hrs compound incubation; 13C-Tyrosine by LC-MS; average where tested multiple times; read-out: AC50

Compound | AC50
Cc1nc(-c2ccccc2)c(C(=O)N2CCc3[nH]cnc3[C@@H]2c2nc3ccccc3s2)o1 [Example 1519, (R)-(4-(benzo[d]thiazol-2-yl)-6,7-dihydro-1H-imidazo[4,5-c]pyridin-5(4H)-yl)(2-methyl-4-phenyloxazol-5-yl)methanone] | > 5 µM
Cc1nc(-c2ccccc2)c(C(=O)N2CCc3[nH]cnc3[C@H]2c2nc3ccccc3s2)o1 [Example 1520] | 0.5 to 1 µM
O=C(c1cnc(C(F)F)s1)N1CCc2[nH]cnc2[C@H]1c1nc2ccccc2s1 [Example 1521] | < 0.5 µM
O=C(c1cnc(C(F)F)s1)N1CCc2[nH]cnc2[C@@H]1c1nc2ccccc2s1 [Example 1522, (R)-(4-(benzo[d]thiazol-2-yl)-6,7-dihydro-1H-imidazo[4,5-c]pyridin-5(4H)-yl)(2-(difluoromethyl)thiazol-5-yl)methanone] | 1 to 5 µM
O=C(c1ocnc1-c1ccccn1)N1CCc2[nH]cnc2[C@H]1c1nc2c(F)cccc2s1 [Example 1523, (S)-(4-(4-fluorobenzo[d]thiazol-2-yl)-6,7-dihydro-1H-imidazo[4,5-c]pyridin-5(4H)-yl)(4-(pyridin-2-yl)oxazol-5-yl)methanone] | 0.5 to 1 µM
O=C(c1ocnc1-c1ccccn1)N1CCc2[nH]cnc2[C@@H]1c1nc2c(F)cccc2s1 [Example 1524, (R)-(4-(4-fluorobenzo[d]thiazol-2-yl)-6,7-dihydro-1H-imidazo[4,5-c]pyridin-5(4H)-yl)(4-(pyridin-2-yl)oxazol-5-yl)methanone] | > 5 µM
Cn1nc(C(=O)N2CCc3[nH]cnc3[C@H]2c2nc3ccccc3s2)c2ccccc21 [Example 1525] | 0.5 to 1 µM
Cn1nc(C(=O)N2CCc3[nH]cnc3[C@@H]2c2nc3ccccc3s2)c2ccccc21 [Example 1526, (R)-(4-(benzo[d]thiazol-2-yl)-6,7-dihydro-1H-imidazo[4,5-c]pyridin-5(4H)-yl)(1-methyl-1H-indazol-3-yl)methanone] | 1 to 5 µM
Cc1nc(C2CC2)oc1C(=O)N1CCc2[nH]cnc2[C@H]1c1nc2c(F)cccc2s1 [Example 1527] | < 0.5 µM
Cc1nc(C2CC2)oc1C(=O)N1CCc2[nH]cnc2[C@@H]1c1nc2c(F)cccc2s1 [Example 1528, (R)-(2-cyclopropyl-4-methyloxazol-5-yl)(4-(4-fluorobenzo[d]thiazol-2-yl)-6,7-dihydro-1H-imidazo[4,5-c]pyridin-5(4H)-yl)methanone] | 1 to 5 µM
O=C(c1ccn2ncccc12)N1CCc2[nH]cnc2[C@H]1c1nc2ccccc2s1 [Example 1529] | 0.5 to 1 µM
O=C(c1ccn2ncccc12)N1CCc2[nH]cnc2[C@@H]1c1nc2ccccc2s1 [Example 1530, (R)-(4-(benzo[d]thiazol-2-yl)-6,7-dihydro-1H-imidazo[4,5-c]pyridin-5(4H)-yl)(pyrrolo[1,2-b]pyridazin-5-yl)methanone] | > 5 µM
Cc1ocnc1CC(=O)N1CCc2[nH]cnc2[C@H]1c1nc2ccccc2s1 [Example 1531] | < 0.5 µM
Cc1ocnc1CC(=O)N1CCc2[nH]cnc2[C@@H]1c1nc2ccccc2s1 [Example 1532, (R)-1-(4-(benzo[d]thiazol-2-yl)-6,7-dihydro-1H-imidazo[4,5-c]pyridin-5(4H)-yl)-2-(5-methyloxazol-4-yl)ethanone] | > 5 µM
Nc1nc(C(F)(F)F)c(C(=O)N2CCc3[nH]cnc3[C@H]2c2nc3ccccc3s2)o1 [Example 1533] | < 0.5 µM
Nc1nc(C(F)(F)F)c(C(=O)N2CCc3[nH]cnc3[C@@H]2c2nc3ccccc3s2)o1 [Example 1534, (R)-(2-amino-4-(trifluoromethyl)oxazol-5-yl)(4-(benzo[d]thiazol-2-yl)-6,7-dihydro-1H-imidazo[4,5-c]pyridin-5(4H)-yl)methanone] | 0.5 to 1 µM
O=C(c1oc(-c2ccccn2)nc1C1CC1)N1CCc2[nH]cnc2[C@H]1c1nc2c(F)cccc2s1 [Example 1535] | < 0.5 µM
O=C(c1oc(-c2ccccn2)nc1C1CC1)N1CCc2[nH]cnc2[C@@H]1c1nc2c(F)cccc2s1 [Example 1536, (R)-(4-cyclopropyl-2-(pyridin-2-yl)oxazol-5-yl)(4-(4-fluorobenzo[d]thiazol-2-yl)-6,7-dihydro-1H-imidazo[4,5-c]pyridin-5(4H)-yl)methanone] | 1 to 5 µM

Compound | AC50
CC(C)(O)c1nc(C2CC2)c(C(=O)N2CCc3[nH]cnc3[C@H]2c2nc3c(F)cccc3s2)o1 [Example 1537, (S)-(4-cyclopropyl-2-(2-hydroxypropan-2-yl)oxazol-5-yl)(4-(4-fluorobenzo[d]thiazol-2-yl)-6,7-dihydro-1H-imidazo[4,5-c]pyridin-5(4H)-yl)methanone] | < 0.5 µM
CC(C)(O)c1nc(C2CC2)c(C(=O)N2CCc3[nH]cnc3[C@@H]2c2nc3c(F)cccc3s2)o1 [Example 1538, (R)-(4-cyclopropyl-2-(2-hydroxypropan-2-yl)oxazol-5-yl)(4-(4-fluorobenzo[d]thiazol-2-yl)-6,7-dihydro-1H-imidazo[4,5-c]pyridin-5(4H)-yl)methanone] | 1 to 5 µM
O=C(c1ocnc1C(F)F)N1CCc2[nH]cnc2[C@H]1c1nc2ccccc2s1 [Example 1539] | < 0.5 µM
O=C(c1ocnc1C(F)F)N1CCc2[nH]cnc2[C@@H]1c1nc2ccccc2s1 [Example 1540, (R)-(4-(benzo[d]thiazol-2-yl)-6,7-dihydro-1H-imidazo[4,5-c]pyridin-5(4H)-yl)(4-(difluoromethyl)oxazol-5-yl)methanone] | < 0.5 µM
CC(C)(O)c1nc(C(F)(F)F)c(C(=O)N2CCc3[nH]cnc3[C@H]2c2nc3c(F)cccc3s2)o1 [Example 1541, (S)-(4-(4-fluorobenzo[d]thiazol-2-yl)-6,7-dihydro-1H-imidazo[4,5-c]pyridin-5(4H)-yl)(2-(2-hydroxypropan-2-yl)-4-(trifluoromethyl)oxazol-5-yl)methanone] | < 0.5 µM
CC(C)(O)c1nc(C(F)(F)F)c(C(=O)N2CCc3[nH]cnc3[C@@H]2c2nc3c(F)cccc3s2)o1 [Example 1542, (R)-(4-(4-fluorobenzo[d]thiazol-2-yl)-6,7-dihydro-1H-imidazo[4,5-c]pyridin-5(4H)-yl)(2-(2-hydroxypropan-2-yl)-4-(trifluoromethyl)oxazol-5-yl)methanone] | < 0.5 µM
CC(C)(O)c1nc(C2CC2)c(C(=O)N2CCc3[nH]cnc3[C@H]2c2nc3ccccc3s2)o1 [Example 1543] | < 0.5 µM
CC(C)(O)c1nc(C2CC2)c(C(=O)N2CCc3[nH]cnc3[C@@H]2c2nc3ccccc3s2)o1 [Example 1544, (R)-(4-(benzo[d]thiazol-2-yl)-6,7-dihydro-1H-imidazo[4,5-c]pyridin-5(4H)-yl)(4-cyclopropyl-2-(2-hydroxypropan-2-yl)oxazol-5-yl)methanone] | 1 to 5 µM
Cc1ncoc1C(=O)N1C[C@H](C)c2[nH]cnc2[C@@H]1c1nc2ccccc2s1 [Example 1545, ((4R,7S)-4-(benzo[d]thiazol-2-yl)-7-methyl-1,4,6,7-tetrahydro-5H-imidazo[4,5-c]pyridin-5-yl)(4-methyloxazol-5-yl)methanone] | > 5 µM
Cc1ncoc1C(=O)N1C[C@H](C)c2[nH]cnc2[C@H]1c1nc2ccccc2s1 [Example 1546, ((4S,7S)-4-(benzo[d]thiazol-2-yl)-7-methyl-1,4,6,7-tetrahydro-5H-imidazo[4,5-c]pyridin-5-yl)(4-methyloxazol-5-yl)methanone] | 0.5 to 1 µM
Cc1ncoc1C(=O)N1C[C@@H](C)c2[nH]cnc2[C@H]1c1nc2ccccc2s1 [Example 1547, ((4S,7R)-4-(benzo[d]thiazol-2-yl)-7-methyl-6,7-dihydro-1H-imidazo[4,5-c]pyridin-5(4H)-yl)(4-methyloxazol-5-yl)methanone] | 1 to 5 µM
Cc1ncoc1C(=O)N1C[C@@H](C)c2[nH]cnc2[C@@H]1c1nc2ccccc2s1 [Example 1548, ((4R,7R)-4-(benzo[d]thiazol-2-yl)-7-methyl-6,7-dihydro-1H-imidazo[4,5-c]pyridin-5(4H)-yl)(4-methyloxazol-5-yl)methanone] | > 5 µM
Cc1cc(C2(C(=O)N3CCc4[nH]cnc4[C@H]3c3nc4ccccc4s3)CC2)on1 [Example 1549] | < 0.5 µM
Cc1cc(C2(C(=O)N3CCc4[nH]cnc4[C@@H]3c3nc4ccccc4s3)CC2)on1 [Example 1550, (R)-(4-(benzo[d]thiazol-2-yl)-6,7-dihydro-1H-imidazo[4,5-c]pyridin-5(4H)-yl)(1-(3-methylisoxazol-5-yl)cyclopropyl)methanone] | 1 to 5 µM
C[C@@H]1CN(C(=O)c2ocnc2C2CC2)[C@H](c2nc3c(F)cccc3s2)c2nc[nH]c21 [Example 1551, (4-cyclopropyloxazol-5-yl)((4S,7R)-4-(4-fluorobenzo[d]thiazol-2-yl)-7-methyl-6,7-dihydro-1H-imidazo[4,5-c]pyridin-5(4H)-yl)methanone] | 0.5 to 1 µM
C[C@@H]1CN(C(=O)c2ocnc2C2CC2)[C@@H](c2nc3c(F)cccc3s2)c2nc[nH]c21 [Example 1552, (4-cyclopropyloxazol-5-yl)((4R,7R)-4-(4-fluorobenzo[d]thiazol-2-yl)-7-methyl-6,7-dihydro-1H-imidazo[4,5-c]pyridin-5(4H)-yl)methanone] | 1 to 5 µM
CC(C)(O)c1nc(C(F)(F)F)c(C(=O)N2CCc3[nH]cnc3[C@H]2c2nc3ccccc3s2)o1 [Example 1553] | < 0.5 µM
CC(C)(O)c1nc(C(F)(F)F)c(C(=O)N2CCc3[nH]cnc3[C@@H]2c2nc3ccccc3s2)o1 [Example 1554, (R)-(4-(benzo[d]thiazol-2-yl)-6,7-dihydro-1H-imidazo[4,5-c]pyridin-5(4H)-yl)(2-(2-hydroxypropan-2-yl)-4-(trifluoromethyl)oxazol-5-yl)methanone] | < 0.5 µM
